Results: patent US20170066759A1, “AROMATIC 5-MEMBERED HETEROCYCLIC DERIVATIVE HAVING TRPV4-INHIBITING ACTIVITY” (Shionogi & Co., Ltd., priority 2012, published 2017)

How the values were obtained:
[1] = biological target: T1, human TRPV4 (hTRPV4/CHO cells) (Homo sapiens, UniProt Q9HBA0); assay: Test Example 4: TRPV4 inhibitory activity (Ki value), 4α-PDD stimulation, Fluo-3 calcium fluorescence (FDSS 3000); format: cell-based; details: Test Example 4, 4α-PDD stimulation, read-out: Test 4 Ki
T1 construct: expressed in transfected cells; host or cells: CHO-K1
How it was run: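 hTRPV4/CHO-K1 cells loaded with 5 μmol/L Fluo-3 in HBSS/HEPES pH 7.5 with probenecid; compound (10 μmol/L to 0.5 nmol/L final, 10 points) added before 4α-PDD, fluorescence read 8 min at Ex 480/Em 540 nm. Max−Min signal normalised to 10 μM Ruthenium Red (100%) and no compound (0%); IC50 converted to Ki using 4α-PDD EC50.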

[2] = Test Example 8: Solubility test; format: physicochemical; details: fassgf or other biorelevant, kinetic from dmso stock; 1% DMSO addition, artificial intestinal juice pH 6.8, 16 hours at 25° C.
Experimental: The solubility of a compound of the present invention was determined under 1% DMSO addition conditions. A 10 mmol/L solution of the compound was prepared with DMSO, and 6 μL of the solution of the compound of the present invention was added to 594 μL of an artificial intestinal juice (water and 118 mL of 0.2 mol/L NaOH reagent were added to 250 mL of 0.2 mol/L potassium dihydrogen phosphate reagent to reach 1000 mL) with a pH of 6.8. The mixture was left standing for 16 hours at 25° C., and the mixture was vacuum-filtered. The filtrate was two-fold diluted with methanol/water=1/1 (V/V), and the compound concentration in the filtrate was measured with HPLC or LC/MS/MS by the absolute calibration method.

[3] = Test Example 9: Metabolism stability test; format: in vitro ADME; details: human liver microsomes 0.5 mg protein/mL, 30 minutes at 37° C., NADPH, compound concentration 0.5 μmol/L
Experimental: Metabolism Stability Test
Using a commercially available pooled human hepatic microsomes, a compound of the present invention was reacted for a constant time, a remaining rate was calculated by comparing a reacted sample and an unreacted sample, thereby, a degree of metabolism in liver was assessed.
A reaction was performed (oxidative reaction) at 37° C. for 0 minute or 30 minutes in the presence of 1 mmol/L NADPH in 0.2 mL of a buffer (50 mmol/L Tris-HCl pH 7.4, 150 mmol/L potassium chloride, 10 mmol/L magnesium chloride) containing 0.5 mg protein/mL of human liver microsomes. After the reaction, 50 μL of the reaction mixture was added to 100 μL of a methanol/acetonitrile=1/1 (v/v), mixed and centrifuged at 3000 rpm for 15 minutes. The compound of the present invention in the supernatant was quantified by LC/MS/MS, and a remaining amount of the compound of the present invention after the reaction was calculated, letting a compound amount at 0 minute reaction time to be 100%. Hydrolysis reaction was performed in the absence of NADPH and glucuronidation reaction was in the presence of 5 mmol/L UDP-glucuronic acid in place of NADPH, followed by similar operations.
(Results) Compound concentration: 0.5 μmol/L

[4] = biological target: T1, human TRPV4 (hTRPV4/CHO cells); assay: Test Example 1: TRPV4 inhibitory activity (IC50 value), 4α-PDD stimulation, Fluo4 calcium fluorescence (FLIPR TETRA); format: cell-based; details: Test Example 1, 4α-PDD stimulation, read-out: Test 1 IC50

T1 sequence (Q9HBA0 whole entry): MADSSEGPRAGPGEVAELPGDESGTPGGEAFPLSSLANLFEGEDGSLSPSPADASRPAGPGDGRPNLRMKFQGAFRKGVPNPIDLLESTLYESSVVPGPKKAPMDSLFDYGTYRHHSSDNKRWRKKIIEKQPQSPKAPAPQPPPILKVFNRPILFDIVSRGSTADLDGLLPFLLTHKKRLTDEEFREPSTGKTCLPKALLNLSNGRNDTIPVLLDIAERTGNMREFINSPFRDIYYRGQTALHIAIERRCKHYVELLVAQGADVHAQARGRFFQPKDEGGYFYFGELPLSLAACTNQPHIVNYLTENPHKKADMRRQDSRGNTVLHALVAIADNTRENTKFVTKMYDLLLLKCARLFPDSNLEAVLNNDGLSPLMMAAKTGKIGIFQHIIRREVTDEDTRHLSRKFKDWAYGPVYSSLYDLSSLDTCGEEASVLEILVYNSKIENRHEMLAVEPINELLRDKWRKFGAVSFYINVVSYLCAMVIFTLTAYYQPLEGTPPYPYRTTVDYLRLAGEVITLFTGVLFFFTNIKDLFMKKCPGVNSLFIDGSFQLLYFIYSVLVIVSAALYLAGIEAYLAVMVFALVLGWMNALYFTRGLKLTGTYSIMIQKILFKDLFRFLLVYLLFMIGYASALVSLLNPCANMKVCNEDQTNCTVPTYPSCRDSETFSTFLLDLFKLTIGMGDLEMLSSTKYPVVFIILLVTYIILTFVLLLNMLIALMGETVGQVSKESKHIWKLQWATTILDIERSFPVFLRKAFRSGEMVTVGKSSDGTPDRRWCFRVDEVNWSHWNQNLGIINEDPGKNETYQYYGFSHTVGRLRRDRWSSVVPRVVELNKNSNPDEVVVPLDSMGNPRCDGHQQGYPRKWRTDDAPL

Row | Structure (SMILES) | Ki [1] [nM] | solubility at 16 h [2] [µM] | Metabolism stability: remaining amount of the compound after the reaction [3] [%] | IC50 [4] [nM]
1 | Cc1nc(C)c(-c2csc(NC(=O)Cc3ccc(S(C)(=O)=O)cc3)n2)s1 [Compound I-17] | 100 to 1000 | > 50 | 92.2 | –
2 | Cc1nc(C)c(-c2csc(NC(=O)C3CCC(F)(F)C3)n2)s1 (stereo not shown) [Compound I-18] | < 100 | > 50 | 86.4 | 100 to 1000
